Test results from patent US6239132A, “Thrombin inhibitors” (Merck & Co., Inc., priority 2000, dated 2001).

Target: human α-thrombin (Homo sapiens, UniProt P00734)
Test: In vitro assay for determining proteinase inhibition: human α-thrombin
Assay type: biochemical
Settings: 25° C., 0.05M TRIS buffer pH 7.4, 0.15M NaCl, 0.1% PEG; sar-PR-pna (or Z-GPR-afc for potent inhibitors); read-out: Inhibitory activity (Ki)
Experimental: Examples of this group are listed below in Table 1. […] Values are as determined according to the in vitro assay described later in the specification.
In Vitro Assay for Determining Proteinase Inhibition
Assays of human α-thrombin and human trypsin were performed by the methods substantially as described in Thrombosis Research, Issue No. 70, page 173 (1993) by S. D. Lewis et al.
The assays were carried out at 25° C. in 0.05M TRIS buffer pH 7.4, 0.15M NaCl, 0.1% PEG. Trypsin assays also contained 1 mM CaCl2.
Concentrations of stock solutions of Z-GPR-afc were determined from measurements of absorbance at 380 nm of the 7-amino-4-trifluoromethyl coumarin produced upon complete hydrolysis of an aliquot of the stock solution by thrombin.
Times required to achieve equilibration between enzyme and inhibitor were determined in control experiments. Initial velocities of product formation in the absence (Vo) or presence of inhibitor (Vi) were measured. Assuming competitive inhibition, and that unity is negligible compared Km /[S], […] (where [S], [I], and e respectively represent the total concentrations, of substrate, inhibitor and enzyme), the equilibrium constant (Ki) for dissociation of the inhibitor from the enzyme can be obtained from the dependence of Vo /Vi on [I] shown in equation 1: […]

Q: With `CCC1(CC)OC(=O)Nc2c1cc(C)n(CC(=O)NCc1ccc(N)nc1C)c2=O` as the compound, how does the Ki read?
A: < 100 nM

Q: Which Ki does the source give for `Cc1cc2c(c(=O)n1CC(=O)NCc1cc3cc[nH]c3cn1)NC(=O)OC2(CC1CC1)CC1CC1` here?
A: < 100 nM

Q: For `Cc1cc2c(c(=O)n1CC(=O)NCc1cc3cc[nH]c3cn1)NC(=O)OC2(C)C`, which Ki is on record?
A: < 100 nM

Q: Which Ki does the source give for `Cc1cc2c(c(=O)n1CC(=O)NCc1cccc(Cl)c1)NC(=O)OC2(C(C)C)C(C)C` here?
A: < 100 nM
